We go through three sequences from patent publication US11174299B2, “Peptides and compositions for prevention of cell adhesion and methods of using same” (D[…]., priority 2008, dated 2021).

Data set [1] has as its system Pseudomonas aeruginosa. Description: Prevention of Pseudomonas aeruginosa attachment by synthetic peptides. Type of data set: cell-based. The following applies: for anti adherence activity on P. aeruginosa: FIG. 3. The protocol:
The synthetic peptide grZ28C [[…] (SEQ ID NO: 1)] gave approximately 50% prevention of Pseudomonas aeruginosa attachment at three concentrations: 50, 5 and 0.5 μg/ml (FIG. 1). The activity was similar to that of the AbacZ17C, peptide based on the anemone cytotoxin active region. Abac10C, which was used as a negative control peptide, was synthesized based on the N-terminal sequence of Abac17C, without the active residue [[…] (SEQ ID NO: 27)].
For peptide grZ35 cyc, the peptide sequence […] (SEQ ID NO: 6) which represents the extracellular region, residue 259-292, was synthesized with two Cysteines in the C and N termini and S—S bridged. For peptide grZ28C, the peptide sequence […] (SEQ ID NO: 3) which represents the extracellular region, residue 259-284, was synthesized with two Cysteines in C and N termini.

The test system of data set [2] is Pseudomonas aeruginosa. Briefly: Growth test on Pseudomonas aeruginosa. The following applies: FIG. 2, FIG. 4. The class given is cell-based.
For data set [3], the system named is P. aeruginosa strain 6294. Description: Bacterial adhesion assay on contact lenses, P. aeruginosa strain 6294. Type of data set: cell-based, Pseudomonas aeruginosa. The following applies: for log inhibition of P. aeruginosa 6294 adhesion: 18 hours; for percentage of inhibition of P. aeruginosa 6294 adhesion: TLF. The protocol:
(§1) The peptide APi1775 (gr14Z-BBC2) according to SEQ ID NO: 28 was immobilized onto Etafilcon A™ (Johnson & Johnson Vision Care Inc., Jacksonville, Fla., USA; Base curve: 8.7 mm, Diameter: 14.0 mm) contact lenses. […] The coating (covalently bonding the peptide to the surface of the contact lenses) procedure was performed by activating the surface of the contact lenses with carboxyl-reactive crosslinker reactive groups EDC (1-ethyl-3-(-3-dimethylaminopropyl) carbodiimide hydrochloride, MW 191.70) followed by incubation with APi1775 (gr14Z-BBC2) at 0.1 μM 1.0 μM and 10 μM peptide concentration. Peptide grZ14s-nyCyc-3PEG-Pal soaked (1 μM) contact lenses were used as positive control, this peptide is used for non-covalent coating of contact lenses.
(§2) Antimicrobial activity was determined against P. aeruginosa strain 6294 (isolated from a case of microbial keratitis), P. aeruginosa strong biofilm produces strain 142 (isolated from a case of microbial keratitis) and S. aureus strain 31 (isolated from a case of contact lens-induced peripheral ulcer) following established methods. Briefly, P. aeruginosa and S. aureus were grown overnight in tryptone soya broth (TSB; Oxoid, Basingstoke, UK) and re-suspended in 1/10 TSB and PBS respectively to an OD660 nm of 0.1 (1.0×10^8 colony-forming unit (CFU) per ml). The bacterial cell suspensions were then diluted to […] for adhesion assays. Non-coated control, process control, APi1775 peptide coated and grZ14s-nvCyc-3PEG-Pal soaked lenses were washed in PBS and transferred to 1 ml of bacterial suspension in 24 well tissue culture plates (CELESTAR®, Greiner bio-one, Frickenhausen, Germany), and incubated at 37° C. for 18 hours with shaking (120 rpm). For P. aeruginosa strain 6294, the assay was performed with PBS and tear Like Fluid (TFL), for P. aeruginosa strain 142 the assay was performed with PBS and for S. aureus the assay was performed using 1/10 TSB. Lenses were washed three times following incubation with PBS to remove loosely adhered bacteria, then stirred in a vortex mixer rapidly in 2 ml of fresh PBS containing a small magnetic stirring bar. The resulting slurry was serially diluted and 20 μl was added onto nutrient agar (TSA; Oxoid, Basingstoke, UK) for recovery of cells. After incubation at 37° C. for 18 hours, viable microorganisms were enumerated as CFU for each lens. Measurements were performed in triplicates for at least three occasions.
(§3) Data were analyzed using Microsoft Office Excel and Statistical Package for the Social Sciences software version 23.0 (SPSS, Inc., Chicago, Ill.). The bacterial adhesion data were log10 (x+1) transformed prior to analysis where x is the adherent bacteria CFU/lens. Bacterial adhesion, contact lens surface elemental composition, and contact lens parameters were analysed using an independent 2-sample t-test, and expressed with descriptive statistics. Statistical significance was set at 5%.

Data set [4] deals with P. aeruginosa strong biofilm producer strain 142. Description: Bacterial adhesion assay on contact lenses, P. aeruginosa strong biofilm producer strain 142. To be noted: PBS (No-TLF). The class given is cell-based, Pseudomonas aeruginosa. The protocol:
as §1, §2, §3

For another data set, the system named is Murine L929 cells. Description: In vitro cytotoxicity of immobilised contact lenses (ISO 10993-5, Trypan Blue). The following applies: peptide coated contact lenses (0.1, 1.0, 10.0 μM) on murine L929 monolayer, 24 h. Type of data set: cell-based. As for the experimental part: Testing in vitro cytotoxicity of APi1775 (gr14Z-BBC2) immobilised contact lenses was performed according to ISO standard 10993-5 standardized procedures. Murine L929 cells were grown to >80% confluency in 24 well tissue culture plates (CELESTAR®, Greiner bio-one, Frickenhausen, Germany) with DMEM cell culture media. The medium was aspirated and replaced with adequate fresh growth medium every 2-3 days. All the test and control contact lenses were washed with sterile PBS prior to the start of the study and then directly placed on the cell monolayer for examination of in vitro cytotoxicity. During this any cytotoxicity of the lenses will disrupt the normal functions of cells beneath and perhaps adjacent to the samples. The samples were incubated overnight at 37° C. with 5% CO2. After 24 hours, cells were stained with vital stain (Trypan Blue; Sigma-Aldrich, St Louis, Mo., USA) and cytotoxicity was assessed using bright field and phase-contrast microscopy. Cytotoxic responses are graded according to a standard key, which quantifies the viability and zonal extent. The samples were used in triplicates.

Data set [5] is described as follows: Dissolution of peptide in Phosphate Buffer Saline (visual inspection). Type of data set: physicochemical.
The mark [6] stands for this setting: lens coated with 0.1 μM peptide, PBS.
Where [7] appears, read: lens coated with 1.0 μM peptide, PBS.
Where [8] appears, read: lens coated with 10.0 μM peptide, PBS.
[9] abbreviates: lens treated with 0.1 μM peptide.
[10] abbreviates: lens treated with 1.0 μM peptide.
Where [11] appears, read: lens treated with 10.0 μM peptide.

Turning to “CSFSQNKSVHSFDYDWYNVSDQADLKNC (SEQ ID NO: 1) [grZ28C]”, the “anti adherence activity on P. aeruginosa” value in the data set with Pseudomonas aeruginosa [1] is on record as “anti adherence activity”. The “prevention of Pseudomonas aeruginosa attachment” value in the data set with Pseudomonas aeruginosa [1] (at three concentrations: 50, 5 and 0.5 μg/ml (FIG. 1)) is reported as “approximately 50%”. Besides, the “effect on P. aeruginosa growth” value with Pseudomonas aeruginosa [2] is given as “not inhibited”.

Turning to “SFSQNKSVHSFDYDWYNVSDQADLKNQLGDAGYV (SEQ ID NO: 6) [grZ35 cyc]”, the “anti adherence activity on P. aeruginosa” value in the data set with Pseudomonas aeruginosa [1] is on record as “anti adherence activity”. The “effect on P. aeruginosa growth” value in the data set on Pseudomonas aeruginosa [2] is “not inhibited”.

With “SVHSFDYDWYNV (SEQ ID NO: 28) (immobilized on Etafilcon A contact lens) [APi1775]”, the “percentage inhibition of P. aeruginosa 6294 adhesion” value in data set [3] (setting [6]) is reported as 77.1%; in data set [3] (setting [7]), 77.5%; in data set [3] (setting [8]), 47.7%. Also, the “log inhibition of P. aeruginosa 6294 adhesion” value in data set [3] (setting [6]) was 0.79 log; in data set [3] (setting [7]), 0.83 log; in data set [3] (setting [8]) it was 0.29 log; in data set [3] (lens treated with 0.1 μM peptide, Tear Like Fluid (TLF)), 0.17 log; in data set [3] (lens treated with 1.0 μM peptide, Tear Like Fluid (TLF)) it was 0.71 log; in data set [3] (lens treated with 10.0 μM peptide, Tear Like Fluid (TLF)), 1.47 log. Moreover, the “percentage of inhibition of P. aeruginosa 6294 adhesion” value worked out at 31.76% in data set [3] (setting [9]), 80.40% in data set [3] (setting [10]) and 96.64% in data set [3] (setting [11]). Further, the “inhibition of bacterial adhesion, strain 142” value is on record as 44.73% in data set [4] (setting [9]), 43.62% in data set [4] (setting [10]) and 77.80% in data set [4] (setting [11]). The entries for the “log inhibition of P. aeruginosa strain 142 adhesion” value in data set [4] (setting [9]), in data set [4] (setting [10]) and in data set [4] (setting [11]) were 0.26 log, 0.25 log and 0.65 log, respectively. For the same sequence, in the data set with Murine L929 cells, the “cytotoxicity to mammalian cells in vitro” value is reported as “not cytotoxic”. In addition, the “dissolution in Phosphate Buffer Saline” value in data set [5] (0.1 μM, 1.0 μM concentration) is recorded as “completely dissolved”; in data set [5] (10.0 μM, rotary shaker at 37° C. overnight, visual inspection), “completely dissolved”.
